Results as given in ChEMBL document CHEMBL5214883, “Comprehensive review for anticancer hybridized multitargeting HDAC inhibitors” (Eur J Med Chem, 2021).
One block for each compound: values may come before it.

How the values were obtained:
[1] = target: Histone-lysine N-methyltransferase EZH2 (Homo sapiens, UniProt Q15910); assay: Inhibition of EZH2 (unknown origin)
Histone deacetylase 1 [2] = target: T1, Histone deacetylase 1 (Homo sapiens, UniProt Q13547); assay: Inhibition of HDAC1 (unknown origin)
SMMC-7721 = assay: Cytotoxicity against human SMMC-7721 cells; format: functional, cell-based
[3] = target: Epidermal growth factor receptor (Homo sapiens, UniProt P00533); assay: Inhibition of EGFR wildtype (unknown origin) incubated for 40 mins in presence of ATP
Histone deacetylase 1 [4] = target: T1, Histone deacetylase 1; assay: Inhibition of HDAC1 in human HeLa cell nuclear extract using Bos-Lys(acetyl)-AMC as substrate preincubated for 5 mins followed by substrate addition incubated for 30 mins; format: cell-free
[5] = tested on: Epidermal growth factor receptor (Homo sapiens), P00533 [UNDEFINED MUTATION]; assay: Inhibition of EGFR T790M (unknown origin) at 1 uM incubated for 40 mins in presence of ATP relative to control
[6] = target: Epidermal growth factor receptor (Homo sapiens, UniProt P00533, T790M); assay: Inhibition of EGFR T790M (unknown origin) incubated for 40 mins in presence of ATP
HeLa = assay: Antiproliferative activity against human HeLa cells incubated for 72 hrs by CCK-8 assay; format: functional, cell-based
A549 = assay: Antiproliferative activity against human A549 cells incubated for 72 hrs by CCK-8 assay; format: functional, cell-based; conditions: A549, 72 h
PC-3 = assay: Antiproliferative activity against human PC-3 cells incubated for 72 hrs by CCK-8 assay; format: functional, cell-based; conditions: PC-3, 72 h
MCF7 [7] = assay: Antiproliferative activity against human MCF7 cells incubated for 72 hrs by CCK-8 assay; format: functional, cell-based; conditions: MCF7, 72 h
Tubulin = assay: Inhibition of tubulin polymerization (unknown origin) incubated for 15 mins in presence of GTP by fluorescence-based tubulin polymerization assay kit; format: protein-complex assay, Homo sapiens
HepG2 = assay: Antiproliferative activity against human HepG2 cells incubated for 72 hrs by CCK-8 assay; format: functional, cell-based; conditions: HepG2, 72 h
[8] = tested on: Panel NCI-60 (60 carcinoma cell lines); assay: Cytotoxicity against human Panel NCI-60 (60 carcinoma cell lines); format: functional, cell-based
Histone deacetylase 1 [9] = target: T1, Histone deacetylase 1; assay: Inhibition of human recombinant HDAC1 using Ac-Lys-Tyr-Lys (epsilon-acetyl)-AMC as substrate incubated for 24 hrs by EnVision multilabel plate reader method
[10] = target: T2, Protein deacetylase HDAC6 (Homo sapiens, UniProt Q9UBN7); assay: Inhibition of HDAC6 (unknown origin) using fluorogenic substrate incubated for 30 mins by fluorometric drug discovery assay kit method
T2 sequence (Q9UBN7 whole entry): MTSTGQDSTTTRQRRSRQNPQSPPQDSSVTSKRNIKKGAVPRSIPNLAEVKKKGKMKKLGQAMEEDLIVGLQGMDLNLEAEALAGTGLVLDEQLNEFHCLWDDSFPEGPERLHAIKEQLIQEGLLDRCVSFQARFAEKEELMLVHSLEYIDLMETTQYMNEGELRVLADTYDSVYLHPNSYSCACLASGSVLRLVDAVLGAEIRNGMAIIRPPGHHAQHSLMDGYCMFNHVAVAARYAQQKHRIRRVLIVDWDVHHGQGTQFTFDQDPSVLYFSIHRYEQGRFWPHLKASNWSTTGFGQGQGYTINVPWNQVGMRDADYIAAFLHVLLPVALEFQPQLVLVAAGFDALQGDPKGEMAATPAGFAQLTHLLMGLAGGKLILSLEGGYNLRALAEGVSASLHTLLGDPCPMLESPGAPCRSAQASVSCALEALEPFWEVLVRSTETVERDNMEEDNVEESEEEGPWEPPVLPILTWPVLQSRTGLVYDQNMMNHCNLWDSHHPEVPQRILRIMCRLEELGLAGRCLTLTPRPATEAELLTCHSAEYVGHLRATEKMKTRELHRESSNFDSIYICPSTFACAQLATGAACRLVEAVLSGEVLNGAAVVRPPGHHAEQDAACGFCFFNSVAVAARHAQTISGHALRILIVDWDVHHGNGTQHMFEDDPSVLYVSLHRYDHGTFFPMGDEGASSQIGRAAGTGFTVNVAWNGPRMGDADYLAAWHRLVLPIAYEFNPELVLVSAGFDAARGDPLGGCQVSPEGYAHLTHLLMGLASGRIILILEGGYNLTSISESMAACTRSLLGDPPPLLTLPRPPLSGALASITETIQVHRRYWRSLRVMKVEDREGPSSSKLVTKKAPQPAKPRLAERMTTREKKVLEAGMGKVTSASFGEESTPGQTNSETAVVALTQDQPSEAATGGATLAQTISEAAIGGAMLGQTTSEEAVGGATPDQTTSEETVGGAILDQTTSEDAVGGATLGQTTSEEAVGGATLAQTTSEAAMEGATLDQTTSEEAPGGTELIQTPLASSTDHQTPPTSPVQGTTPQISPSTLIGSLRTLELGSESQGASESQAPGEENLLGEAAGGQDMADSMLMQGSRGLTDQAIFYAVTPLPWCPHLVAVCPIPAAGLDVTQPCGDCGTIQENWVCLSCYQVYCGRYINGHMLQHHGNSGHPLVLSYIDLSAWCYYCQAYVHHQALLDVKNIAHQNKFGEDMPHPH

[11] = target: Ribosomal protein S6 kinase alpha-5 (Homo sapiens) (UniProt O75582); assay: Inhibition of MSK1 (unknown origin) at 1 uM relative to control
[12] = target: Inhibitor of nuclear factor kappa-B kinase subunit alpha (Homo sapiens) (UniProt O15111); assay: Inhibition of IKKa (unknown origin) at 1 uM relative to control
L1210 = assay: Cytotoxicity against mouse L1210 cells by trypan blue staining method; format: functional; conditions: read-out: LC50 (the source's name)
Jurkat = assay: Cytotoxicity against human Jurkat cells by trypan blue staining method; format: functional; conditions: read-out: LC50 (the source's name)
Histone deacetylase 1 [13] = target: T1, Histone deacetylase 1; assay: Inhibition of HDAC1 (unknown origin) relative to control; conditions: concentration not given here
HaCaT = assay: Cytotoxicity against human HaCat cells by trypan blue staining method; format: functional; conditions: read-out: LC50 (the source's name)
MCF7 [14] = assay: Cytotoxicity against human MCF7 cells by trypan blue staining method; format: functional, cell-based
HEK-293T = assay: Cytotoxicity against human 293T cells by trypan blue staining method; format: functional; conditions: read-out: LC50 (the source's name)
[15] = target: T2, Protein deacetylase HDAC6; assay: Inhibition of HDAC6 (unknown origin)
[16] = Inhibition of PDGFR (unknown origin); parameters: species or system Homo sapiens
[17] = target: Cyclin-dependent kinase 4 (Homo sapiens, UniProt P11802); assay: Inhibition of Cdk4 (unknown origin)
Histone deacetylase 3 = Histone deacetylase 3 (Homo sapiens, UniProt O15379); assay: Inhibition of HDAC3 (unknown origin)
[18] = Antiproliferative activity against breast cancer cell line (unknown origin)
[19] = Antiproliferative activity against non-small cell lung cancer cell line (unknown origin)
[20] = target: Polyamine deacetylase HDAC10 (Homo sapiens, UniProt Q969S8); assay: Inhibition of HDAC10 (unknown origin)

T1 sequence (Q13547 whole entry): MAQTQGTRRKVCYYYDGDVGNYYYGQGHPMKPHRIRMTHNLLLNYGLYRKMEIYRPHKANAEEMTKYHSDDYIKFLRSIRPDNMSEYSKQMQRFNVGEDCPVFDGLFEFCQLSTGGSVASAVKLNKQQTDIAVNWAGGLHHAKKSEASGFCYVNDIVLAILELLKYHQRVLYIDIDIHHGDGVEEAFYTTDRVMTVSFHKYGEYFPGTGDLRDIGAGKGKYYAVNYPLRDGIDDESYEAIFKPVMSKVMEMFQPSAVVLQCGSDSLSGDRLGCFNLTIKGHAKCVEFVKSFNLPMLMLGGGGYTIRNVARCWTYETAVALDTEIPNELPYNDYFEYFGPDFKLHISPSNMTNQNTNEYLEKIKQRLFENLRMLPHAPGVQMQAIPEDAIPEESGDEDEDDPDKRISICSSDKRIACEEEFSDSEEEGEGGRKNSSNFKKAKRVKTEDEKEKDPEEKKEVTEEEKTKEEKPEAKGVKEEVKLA
Chain of Histone-lysine N-methyltransferase EZH2 (Q15910 whole entry): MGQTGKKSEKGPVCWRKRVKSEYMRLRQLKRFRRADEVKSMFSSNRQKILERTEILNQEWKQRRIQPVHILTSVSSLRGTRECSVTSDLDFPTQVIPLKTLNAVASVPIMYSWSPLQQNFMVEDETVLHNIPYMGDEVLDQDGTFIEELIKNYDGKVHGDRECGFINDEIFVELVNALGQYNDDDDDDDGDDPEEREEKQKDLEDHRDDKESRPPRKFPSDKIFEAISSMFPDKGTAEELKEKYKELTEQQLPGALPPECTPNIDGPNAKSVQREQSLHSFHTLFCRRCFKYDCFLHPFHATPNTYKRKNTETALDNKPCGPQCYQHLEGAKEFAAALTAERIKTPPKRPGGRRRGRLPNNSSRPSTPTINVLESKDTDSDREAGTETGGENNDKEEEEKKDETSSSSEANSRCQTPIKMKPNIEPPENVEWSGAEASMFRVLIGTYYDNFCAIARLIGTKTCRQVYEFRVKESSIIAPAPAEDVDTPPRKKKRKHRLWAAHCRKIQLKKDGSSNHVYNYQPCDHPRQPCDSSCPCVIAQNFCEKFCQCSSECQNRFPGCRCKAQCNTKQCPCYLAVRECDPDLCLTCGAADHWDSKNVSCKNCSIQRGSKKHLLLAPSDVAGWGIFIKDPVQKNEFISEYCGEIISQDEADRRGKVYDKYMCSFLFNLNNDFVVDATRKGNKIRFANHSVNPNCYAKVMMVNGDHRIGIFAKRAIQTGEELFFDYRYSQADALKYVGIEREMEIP
Chain of Ribosomal protein S6 kinase alpha-5 (Homo sapiens) (O75582 whole entry, looked up): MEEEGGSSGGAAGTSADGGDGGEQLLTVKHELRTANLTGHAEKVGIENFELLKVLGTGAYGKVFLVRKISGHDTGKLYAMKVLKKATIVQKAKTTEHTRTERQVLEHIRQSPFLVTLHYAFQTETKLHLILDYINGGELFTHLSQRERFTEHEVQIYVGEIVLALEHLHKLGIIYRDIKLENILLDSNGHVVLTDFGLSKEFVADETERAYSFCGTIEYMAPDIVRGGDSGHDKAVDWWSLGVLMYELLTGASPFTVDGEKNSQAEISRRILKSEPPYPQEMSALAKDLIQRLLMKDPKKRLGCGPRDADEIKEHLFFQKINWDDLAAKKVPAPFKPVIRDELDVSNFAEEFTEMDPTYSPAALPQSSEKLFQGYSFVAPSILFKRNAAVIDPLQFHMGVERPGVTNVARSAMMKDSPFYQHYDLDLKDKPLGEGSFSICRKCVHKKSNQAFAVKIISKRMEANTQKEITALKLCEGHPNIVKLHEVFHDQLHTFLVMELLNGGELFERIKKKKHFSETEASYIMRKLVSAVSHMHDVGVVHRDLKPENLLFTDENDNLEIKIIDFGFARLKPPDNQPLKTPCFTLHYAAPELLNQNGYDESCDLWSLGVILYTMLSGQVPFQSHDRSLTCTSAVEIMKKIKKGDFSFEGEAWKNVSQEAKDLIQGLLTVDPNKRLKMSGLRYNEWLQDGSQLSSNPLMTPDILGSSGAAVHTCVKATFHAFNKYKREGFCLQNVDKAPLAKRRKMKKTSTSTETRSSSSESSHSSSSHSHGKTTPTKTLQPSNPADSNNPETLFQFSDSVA
Chain of Epidermal growth factor receptor (Homo sapiens), P00533 [UNDEFINED MUTATION] (P00533 whole entry, looked up, stated change not applied): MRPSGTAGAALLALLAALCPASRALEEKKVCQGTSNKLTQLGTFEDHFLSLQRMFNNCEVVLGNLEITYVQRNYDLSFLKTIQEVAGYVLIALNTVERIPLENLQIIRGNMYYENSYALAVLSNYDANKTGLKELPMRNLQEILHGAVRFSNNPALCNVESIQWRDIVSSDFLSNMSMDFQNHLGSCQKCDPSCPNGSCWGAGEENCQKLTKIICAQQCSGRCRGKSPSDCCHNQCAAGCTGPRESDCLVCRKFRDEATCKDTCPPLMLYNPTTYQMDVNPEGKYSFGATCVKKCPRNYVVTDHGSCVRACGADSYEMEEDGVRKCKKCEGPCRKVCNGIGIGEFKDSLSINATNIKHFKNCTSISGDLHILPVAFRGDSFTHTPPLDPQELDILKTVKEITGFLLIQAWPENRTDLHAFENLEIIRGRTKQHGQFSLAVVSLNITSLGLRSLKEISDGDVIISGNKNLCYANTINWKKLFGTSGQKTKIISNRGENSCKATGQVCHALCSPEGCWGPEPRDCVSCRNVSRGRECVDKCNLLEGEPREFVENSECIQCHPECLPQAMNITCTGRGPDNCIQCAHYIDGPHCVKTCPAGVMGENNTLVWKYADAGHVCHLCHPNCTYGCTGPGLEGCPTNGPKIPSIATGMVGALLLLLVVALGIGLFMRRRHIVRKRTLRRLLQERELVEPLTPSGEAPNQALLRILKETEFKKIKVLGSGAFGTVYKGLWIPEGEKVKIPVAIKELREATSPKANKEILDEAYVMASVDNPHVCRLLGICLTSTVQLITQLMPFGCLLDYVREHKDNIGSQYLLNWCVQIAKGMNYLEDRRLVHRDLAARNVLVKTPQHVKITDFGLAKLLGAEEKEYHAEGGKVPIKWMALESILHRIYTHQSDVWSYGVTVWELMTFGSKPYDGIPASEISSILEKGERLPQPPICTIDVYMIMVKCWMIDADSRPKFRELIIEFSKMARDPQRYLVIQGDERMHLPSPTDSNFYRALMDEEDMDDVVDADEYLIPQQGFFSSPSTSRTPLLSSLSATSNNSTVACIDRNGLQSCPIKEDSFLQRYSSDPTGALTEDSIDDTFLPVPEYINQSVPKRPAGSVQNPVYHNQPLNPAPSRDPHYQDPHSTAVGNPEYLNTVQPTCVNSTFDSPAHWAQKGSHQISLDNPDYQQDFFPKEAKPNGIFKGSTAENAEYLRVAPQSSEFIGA
Chain of Epidermal growth factor receptor (Homo sapiens, UniProt P00533) (P00533 whole entry): as the sequence (P00533 whole entry, looked up, stated change not applied) above
Chain of Cyclin-dependent kinase 4 (P11802 whole entry): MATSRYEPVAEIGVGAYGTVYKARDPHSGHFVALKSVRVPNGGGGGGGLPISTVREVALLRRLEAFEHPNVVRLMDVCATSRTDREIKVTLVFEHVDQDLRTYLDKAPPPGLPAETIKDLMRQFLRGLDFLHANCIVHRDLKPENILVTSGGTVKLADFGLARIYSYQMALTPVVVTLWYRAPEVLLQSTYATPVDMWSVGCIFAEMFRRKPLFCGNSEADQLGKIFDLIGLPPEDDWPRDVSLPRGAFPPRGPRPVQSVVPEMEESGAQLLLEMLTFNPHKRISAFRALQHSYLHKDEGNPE

IC50 [1]: 15400 nM
Compound: Cc1cc(C)c(CNC(=O)c2cc(C)n(-c3ccccc3)c2C)c(=O)[nH]1

IC50 (Histone deacetylase 1 [2]): 0.58 nM
Compound: CC(C)=CCC/C(C)=C\CC/C(C)=C\CSc1ccccc1C(=O)NCCCCC(=O)NO
IC50 (SMMC-7721): 4930 nM

IC50 [3]: 3200 nM | IC50 (Histone deacetylase 1 [4]): 105 nM | inhibition [5]: 44% | IC50 [6]: 1200 nM
Compound: Cn1cc(-c2ccnc(Nc3ccc(NC(=O)CCCCCCC(=O)NO)cc3)n2)c2ccccc21

IC50 (HeLa): > 70000 nM | IC50 (A549): > 70000 nM | IC50 (PC-3): > 70000 nM | IC50 (MCF7 [7]): > 70000 nM | IC50 (Tubulin): 11300 nM | IC50 (HepG2): > 70000 nM
Compound: C[C@H]1COc2c(N3CCN(C)CC3)c(F)cc3c(=O)c(C(=O)O)cn1c23 [LEVOFLOXACIN]

Compound: Cn1c(CCCC(=O)O)nc2cc(N(CCCl)CCCl)ccc21 [BENDAMUSTINE]
IC50 [8]: 77 nM

Compound: Cn1c(CCCCCCC(=O)NO)nc2cc(N(CCCl)CCCl)ccc21 [TINOSTAMUSTINE]
IC50 (Histone deacetylase 1 [2]): 10 nM | IC50 [8]: 2200 nM

IC50 (Histone deacetylase 1 [9]): 150 nM
Compound: COc1cc2ncnc(Nc3cccc(/C=C/C(=O)NO)c3)c2cc1OCCCN1CCOCC1

IC50 [10]: 860 nM
Compound: CN(C)c1nc2c(Br)c(Br)c(Br)c(Br)c2n1CCCCCC(=O)NO

inhibition [11]: 1% | inhibition [12]: 80%
Compound: CCN1CCN(Cc2ccc(Nc3ncc(F)c(-c4cc(F)c5nc(C)n(C(C)C)c5c4)n3)nc2)CC1

Compound: O=C(CCn1cc(CCn2nnc3c(Br)c(Br)c(Br)c(Br)c32)nn1)NO
CC50 (L1210): 13500 nM | CC50 (Jurkat): 13500 nM | inhibition (Histone deacetylase 1 [13]): 90% | CC50 (HaCaT): 13500 nM | IC50 (MCF7 [14]): 17300 nM | CC50 (HEK-293T): 13500 nM

IC50 [15]: ≥ 32000 nM | IC50 [16]: 2700 nM
Compound: Cc1ccc(NCc2ccc(C(=O)Nc3ccccc3N)cc2)cc1Nc1nccc(-c2cccnc2)n1

IC50 (Histone deacetylase 1 [2]): 26 nM | IC50 [17]: 1.2 nM | IC50 [15]: 5.9 nM | IC50 (Histone deacetylase 3): 56 nM | IC50 [20]: 73 nM
Compound: Cc1nc2c(F)cc(-c3nc(Nc4ccc(CNC(=O)CC(=O)NO)cc4)ncc3F)cc2n1C(C)C
IC50 [18]: 18.3 nM | IC50 [19]: 18.3 nM

IC50 [1]: 5780 nM
Compound: Cc1cc(C)c(CNC(=O)c2cnn(-c3ccccc3)c2C)c(=O)[nH]1
